Literature values in patent publication US20040024042A1, “COX2 inhibition in the prevention and treatment of autosomal dominant polycystic kidney disease” (Vanderbilt University, priority 2002, published 2004).

How the values were obtained:
[1] = tested on: albumin and alpha1-acid glycoprotein; details: within the clinical dose range
Cytochrome P450 2C9 = Cytochrome P450 2C9 (Homo sapiens, UniProt P11712)
[2] = not given; remark: listed apart in the source
[3] = not given; remark: listed apart in the source
warfarin metabolism = details: in vivo
mouse models of FAP = details: mice treated with COX2 inhibitor

Chain of Cytochrome P450 2C9 (P11712 whole entry): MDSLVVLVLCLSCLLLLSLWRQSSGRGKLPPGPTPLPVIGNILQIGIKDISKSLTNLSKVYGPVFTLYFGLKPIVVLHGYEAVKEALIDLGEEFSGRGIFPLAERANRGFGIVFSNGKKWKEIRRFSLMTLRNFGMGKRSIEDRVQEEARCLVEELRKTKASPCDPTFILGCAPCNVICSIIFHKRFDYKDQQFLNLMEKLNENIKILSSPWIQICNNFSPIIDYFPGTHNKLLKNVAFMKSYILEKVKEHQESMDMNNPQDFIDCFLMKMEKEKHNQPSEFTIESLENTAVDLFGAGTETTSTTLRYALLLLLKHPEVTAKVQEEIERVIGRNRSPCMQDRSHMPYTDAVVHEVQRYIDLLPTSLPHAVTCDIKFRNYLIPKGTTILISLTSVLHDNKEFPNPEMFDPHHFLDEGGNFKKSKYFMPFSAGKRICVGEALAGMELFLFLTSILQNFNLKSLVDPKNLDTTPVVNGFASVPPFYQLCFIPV

CC(=O)O[C@H]1C(=O)[C@@]2(C)[C@H]([C@H](OC(=O)c3ccccc3)[C@]3(O)C[C@H](OC(=O)[C@H](O)[C@@H](NC(=O)c4ccccc4)c4ccccc4)C(C)=C1C3(C)C)[C@]1(OC(C)=O)CO[C@@H]1C[C@@H]2O [Taxol]
Progression of PKD (PKD in animal models): slow progression of PKD

Cc1ccc(-c2cc(C(F)(F)F)nn2-c2ccc(S(N)(=O)=O)cc2)cc1 [celecoxib, 4-[5-(4-methyphenyl)-3-(trifluoromethyl)-1H-pyrazol-1-yl] benzenesulfonamide]
Time of peak plasma levels (after an oral dose): roughly 3 hours
Effect of antacids on plasma concentrations (aluminum or magnesium containing antacids): decrease in plasma concentrations
Effective half-life (fasted conditions): roughly 11 hours
Dose excreted in feces (following a single dose): 57%
Dose excreted in the urine (following a single dose): 27%
Delay of plasma levels with food (taken with a high fat meal): 1 to 2 h
Increase in total absorption with food (taken with a high fat meal): 10-20%
Protein binding [1]: highly protein bound
Major metabolizing enzyme (Cytochrome P450 2C9): Cytochrome P450 2C9

CS(=O)(=O)c1ccc(C2=C(c3ccccc3)C(=O)OC2)cc1 [rofecoxib]
Time to steady state level ([2]; 25 mg qday): 4 days
Increase of AUC in moderate hepatic insufficiency ([2]; Child-Pugh score 7-9): 69%
Peak plasma concentration (Cmax) ([2]; after a 25-mg dose): 0.2 µg/mL
Reduction of Cmax by antacids ([2]; antacids): 20%
Reduction of extent of absorption by antacids ([2]; antacids): 10-15%
Increase in bioavailability in elderly patients ([2]; elderly patients (>65 yrs) compared to young subjects): 34%
Cd ([2]; in vivo): 90 L
Dose excreted unchanged in the urine ([2]; in vivo): < 1%
Oral bioavailability ([2]; in vivo, po): > 90%
Accumulation factor ([2]; repeated administration): 1.67
Cssmax ([2]; steady state, 25 mg qday): 0.32 µg/mL
Crossing of the placenta and the blood-brain barrier ([3]; animal studies): able to cross the placenta and the blood-brain barrier
Excretion in milk ([3]; lactating animals): excreted in the milk of lactating animals
Induction of the 3A4 isoform (Cytochrome P450 3A4; in vivo): mild inducer
Substrate of the P450 system (Cytochrome P450 3A4; in vivo): not a substrate for the P450 system
Reduction of the AUC of midazolam (Cytochrome P450 3A4; rofecoxib 25 mg daily): 30%
Increase of INR with warfarin (warfarin metabolism): about 10%
Polyp formation (mouse models of FAP): marked reduction in polyp formation
